From patent publication US9708314B2, “Heterocyclic amide compound” (NISSAN CHEMICAL INDUSTRIES, LTD., priority 2013, dated 2017)

Key:
Type in all cases: in vivo
Veronica persica = test: Test Example 4: herbicidal effect by application to foliage (diluvial soil, plastic box); conditions: application to foliage; for herbicidal effect, R (Veronica persica): 320 g/ha; for R: herbicidal effect on Veronica persica: application herbicide amount 320 g/ha
Outline: (§1)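 Scores run from 0 (herbicidal ratio ≤5%) to 5 (≥90%, almost fully withered) and were assessed three weeks after foliar spraying. Seedlings had been raised for 14 days at 25-30° C in sterilized diluvial soil before treatment, with the emulsion diluted in water to the stated g/ha dose.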

Stellaria media = test: as above; conditions: application to foliage; for herbicidal effect, P (Stellaria media): 320 g/ha; for P: herbicidal effect on Stellaria media: application herbicide amount 320 g/ha
Outline: as §1

Lolium multiflorum Lam. = test: as above; conditions: application to foliage; for herbicidal effect, K (Lolium multiflorum Lam.): 320 g/ha; for K: herbicidal effect on Lolium multiflorum Lam.: application herbicide amount 320 g/ha
Outline: as §1

Galium spurium = test: as above; conditions: application to foliage; for herbicidal effect, Q (Galium spurium): 320 g/ha; for Q: herbicidal effect on Galium spurium: application herbicide amount 320 g/ha
Outline: as §1

Setaria viridis = test: as above; conditions: application to foliage; for herbicidal effect, G (Setaria viridis): 320 g/ha; for G: herbicidal effect on Setaria viridis: application herbicide amount 320 g/ha
Outline: as §1

Amaranthus retroflexus = test: as above; conditions: application to foliage; for herbicidal effect, N (Amaranthus retroflexus): 320 g/ha; for N: herbicidal effect on Amaranthus retroflexus: application herbicide amount 320 g/ha
Outline: as §1

[1] = test system: Echinochloa crus-galli var. crus-galli; test: as above; conditions: application to foliage; for herbicidal effect, H (Echinochloa crus-galli var. crus-galli): 320 g/ha; for H: herbicidal effect on Echinochloa crus-galli var. crus-galli: application herbicide amount 320 g/ha
Outline: as §1

Avena fatua = test: as above; conditions: application to foliage; for herbicidal effect, I (Avena fatua): 320 g/ha; for I: herbicidal effect on Avena fatua: application herbicide amount 320 g/ha
Outline: as §1

Abutilon theophrasti = test: as above; conditions: application to foliage; for herbicidal effect, M (Abutilon theophrasti): 320 g/ha; for M: herbicidal effect on Abutilon theophrasti: application herbicide amount 320 g/ha
Outline: as §1

Alopecurus myosuroides = test: as above; conditions: application to foliage; for herbicidal effect, J (Alopecurus myosuroides): 320 g/ha; for J: herbicidal effect on Alopecurus myosuroides: application herbicide amount 320 g/ha
Outline: as §1

Chenopodium album = test: as above; conditions: application to foliage; for herbicidal effect, O (Chenopodium album): 320 g/ha; for O: herbicidal effect on Chenopodium album: application herbicide amount 320 g/ha
Outline: as §1

Digitaria ciliaris = test: as above; conditions: application to foliage; for herbicidal effect, F (Digitaria ciliaris): 320 g/ha; for F: herbicidal effect on Digitaria ciliaris: application herbicide amount 320 g/ha
Outline: as §1

Apera spica-venti. = test: as above; conditions: application to foliage; for herbicidal effect, L (Apera spica-venti.): 320 g/ha; for L: herbicidal effect on Apera spica-venti.: application herbicide amount 320 g/ha
Outline: as §1

Zea mays = test: Test Example 4: effect on crop by application to foliage (diluvial soil, plastic box); conditions: application to foliage; for effect on crop, b (Zea mays): 320 g/ha; for c: effect on crop, Zea mays: application herbicide amount 320 g/ha
Outline: as §1

[2] = test system: directly sowed Oryza sativa; test: as above; conditions: application to foliage; for effect on crop, d (directly sowed Oryza sativa): 320 g/ha; for b: effect on crop, directly sowed Oryza sativa: application herbicide amount 320 g/ha
Outline: as §1

Glycine max = test: as above; conditions: application to foliage; for effect on crop, c (Glycine max): 320 g/ha; for d: effect on crop, Glycine max: application herbicide amount 320 g/ha
Outline: as §1

Triticum aestivum = test: as above; conditions: application to foliage; for effect on crop, e (Triticum aestivum): 320 g/ha; for e: effect on crop, Triticum aestivum: application herbicide amount 320 g/ha
Outline: as §1

[3] = test system: Beta vulgaris ssp. vulgaris; test: as above; conditions: application to foliage; for effect on crop, f (Beta vulgaris ssp. vulgaris): 320 g/ha; for f: effect on crop, Beta vulgaris ssp. vulgaris: application herbicide amount 320 g/ha
Outline: as §1

Brassica campestris L. = test: as above; conditions: application to foliage; for effect on crop, g (Brassica campestris L.): 320 g/ha; for g: effect on crop, Brassica campestris L.: application herbicide amount 320 g/ha
Outline: as §1

Structure (SMILES) | herbicidal effect, R (Veronica persica) (Veronica persica) | herbicidal effect, P (Stellaria media) (Stellaria media) | herbicidal effect, K (Lolium multiflorum Lam.) (Lolium multiflorum Lam.) | herbicidal effect, Q (Galium spurium) (Galium spurium) | herbicidal effect, G (Setaria viridis) (Setaria viridis) | herbicidal effect, N (Amaranthus retroflexus) (Amaranthus retroflexus) | herbicidal effect, H (Echinochloa crus-galli var. crus-galli) [1] | herbicidal effect, I (Avena fatua) (Avena fatua) | herbicidal effect, M (Abutilon theophrasti) (Abutilon theophrasti) | herbicidal effect, J (Alopecurus myosuroides) (Alopecurus myosuroides) | herbicidal effect, O (Chenopodium album) (Chenopodium album) | herbicidal effect, F (Digitaria ciliaris) (Digitaria ciliaris) | herbicidal effect, L (Apera spica-venti.) (Apera spica-venti.) | effect on crop, b (Zea mays) (Zea mays) | effect on crop, d (directly sowed Oryza sativa) [2] | effect on crop, c (Glycine max) (Glycine max) | effect on crop, e (Triticum aestivum) (Triticum aestivum) | effect on crop, f (Beta vulgaris ssp. vulgaris) [3] | effect on crop, g (Brassica campestris L.) (Brassica campestris L.) | R: herbicidal effect on Veronica persica (Veronica persica) | other results
C#CCN(C)c1nnc2c(C(=O)Nc3nnnn3C)ccc(C(F)(F)F)n12 [2-094] | 4 (Herbicidal ratio of 70% or more and less than 90%) | 5 (Herbicidal ratio of 90% or more (almost completely withered)) | 1 (Herbicidal ratio of 5% or more and less than 20%) | 3 (Herbicidal ratio of 40% or more and less than 70%) | 4 (Herbicidal ratio of 70% or more and less than 90%) | 4 (Herbicidal ratio of 70% or more and less than 90%) | 5 (Herbicidal ratio of 90% or more (almost completely withered)) | 2 (Herbicidal ratio of 20% or more and less than 40%) | 5 (Herbicidal ratio of 90% or more (almost completely withered)) | 1 (Herbicidal ratio of 5% or more and less than 20%) | 5 (Herbicidal ratio of 90% or more (almost completely withered)) | 4 (Herbicidal ratio of 70% or more and less than 90%) | 3 (Herbicidal ratio of 40% or more and less than 70%) | 3 (Herbicidal ratio of 40% or more and less than 70%) | 4 (Herbicidal ratio of 70% or more and less than 90%) | 1 (Herbicidal ratio of 5% or more and less than 20%) | 1 (Herbicidal ratio of 5% or more and less than 20%) | 5 (Herbicidal ratio of 90% or more (almost completely withered)) | 4 (Herbicidal ratio of 70% or more and less than 90%) | – | –
CC(C)c1nnc2c(C(=O)Nc3nnnn3Cc3ccc(Cl)cc3)ccc(C(F)(F)F)n12 [2-093] | 2 (Herbicidal ratio of 20% or more and less than 40%) | 5 (Herbicidal ratio of 90% or more (almost completely withered)) | 1 (Herbicidal ratio of 5% or more and less than 20%) | 2 (Herbicidal ratio of 20% or more and less than 40%) | 0 (Herbicidal ratio of 5% or less (almost no effect)) | 2 (Herbicidal ratio of 20% or more and less than 40%) | 1 (Herbicidal ratio of 5% or more and less than 20%) | 1 (Herbicidal ratio of 5% or more and less than 20%) | 3 (Herbicidal ratio of 40% or more and less than 70%) | 1 (Herbicidal ratio of 5% or more and less than 20%) | 5 (Herbicidal ratio of 90% or more (almost completely withered)) | 1 (Herbicidal ratio of 5% or more and less than 20%) | 1 (Herbicidal ratio of 5% or more and less than 20%) | 0 (Herbicidal ratio of 5% or less (almost no effect)) | 3 (Herbicidal ratio of 40% or more and less than 70%) | 0 (Herbicidal ratio of 5% or less (almost no effect)) | 1 (Herbicidal ratio of 5% or more and less than 20%) | 2 (Herbicidal ratio of 20% or more and less than 40%) | 1 (Herbicidal ratio of 5% or more and less than 20%) | – | –
Cc1nnc(NC(=O)c2ccc(C(F)(F)F)n3c(SC4CCCC4)nnc23)o1 [1-154] | – | – | – | – | – | – | – | – | – | – | – | – | – | – | – | – | – | – | – | 0 (Herbicidal ratio of 5% or less (almost no effect)) | P: herbicidal effect on Stellaria media (Stellaria media): 4 (Herbicidal ratio of 70% or more and less than 90%); K: herbicidal effect on Lolium multiflorum Lam. (Lolium multiflorum Lam.): 0 (Herbicidal ratio of 5% or less (almost no effect)); Q: herbicidal effect on Galium spurium (Galium spurium): 0 (Herbicidal ratio of 5% or less (almost no effect)); G: herbicidal effect on Setaria viridis (Setaria viridis): 2 (Herbicidal ratio of 20% or more and less than 40%); N: herbicidal effect on Amaranthus retroflexus (Amaranthus retroflexus): 2 (Herbicidal ratio of 20% or more and less than 40%); H: herbicidal effect on Echinochloa crus-galli var. crus-galli [1]: 3 (Herbicidal ratio of 40% or more and less than 70%); I: herbicidal effect on Avena fatua (Avena fatua): 0 (Herbicidal ratio of 5% or less (almost no effect)); M: herbicidal effect on Abutilon theophrasti (Abutilon theophrasti): 2 (Herbicidal ratio of 20% or more and less than 40%); J: herbicidal effect on Alopecurus myosuroides (Alopecurus myosuroides): 0 (Herbicidal ratio of 5% or less (almost no effect)); O: herbicidal effect on Chenopodium album (Chenopodium album): 5 (Herbicidal ratio of 90% or more (almost completely withered)); F: herbicidal effect on Digitaria ciliaris (Digitaria ciliaris): 3 (Herbicidal ratio of 40% or more and less than 70%); L: herbicidal effect on Apera spica-venti. (Apera spica-venti.): 0 (Herbicidal ratio of 5% or less (almost no effect)); c: effect on crop, Zea mays (Zea mays): 0 (Herbicidal ratio of 5% or less (almost no effect)); b: effect on crop, directly sowed Oryza sativa [2]: 0 (Herbicidal ratio of 5% or less (almost no effect)); d: effect on crop, Glycine max (Glycine max): 2 (Herbicidal ratio of 20% or more and less than 40%); e: effect on crop, Triticum aestivum (Triticum aestivum): 0 (Herbicidal ratio of 5% or less (almost no effect)); f: effect on crop, Beta vulgaris ssp. vulgaris [3]: 4 (Herbicidal ratio of 70% or more and less than 90%); g: effect on crop, Brassica campestris L. (Brassica campestris L.): 0 (Herbicidal ratio of 5% or less (almost no effect))
Cc1nnc(NC(=O)c2ccc(C(F)(F)F)n3c(SCc4ccc(Cl)nc4)nnc23)o1 [1-156] | – | – | – | – | – | – | – | – | – | – | – | – | – | – | – | – | – | – | – | 3 (Herbicidal ratio of 40% or more and less than 70%) | P: herbicidal effect on Stellaria media (Stellaria media): 4 (Herbicidal ratio of 70% or more and less than 90%); K: herbicidal effect on Lolium multiflorum Lam. (Lolium multiflorum Lam.): 1 (Herbicidal ratio of 5% or more and less than 20%); Q: herbicidal effect on Galium spurium (Galium spurium): 1 (Herbicidal ratio of 5% or more and less than 20%); G: herbicidal effect on Setaria viridis (Setaria viridis): 1 (Herbicidal ratio of 5% or more and less than 20%); N: herbicidal effect on Amaranthus retroflexus (Amaranthus retroflexus): 3 (Herbicidal ratio of 40% or more and less than 70%); H: herbicidal effect on Echinochloa crus-galli var. crus-galli [1]: 4 (Herbicidal ratio of 70% or more and less than 90%); I: herbicidal effect on Avena fatua (Avena fatua): 1 (Herbicidal ratio of 5% or more and less than 20%); M: herbicidal effect on Abutilon theophrasti (Abutilon theophrasti): 3 (Herbicidal ratio of 40% or more and less than 70%); J: herbicidal effect on Alopecurus myosuroides (Alopecurus myosuroides): 1 (Herbicidal ratio of 5% or more and less than 20%); O: herbicidal effect on Chenopodium album (Chenopodium album): 5 (Herbicidal ratio of 90% or more (almost completely withered)); F: herbicidal effect on Digitaria ciliaris (Digitaria ciliaris): 2 (Herbicidal ratio of 20% or more and less than 40%); L: herbicidal effect on Apera spica-venti. (Apera spica-venti.): 2 (Herbicidal ratio of 20% or more and less than 40%); c: effect on crop, Zea mays (Zea mays): 0 (Herbicidal ratio of 5% or less (almost no effect)); b: effect on crop, directly sowed Oryza sativa [2]: 0 (Herbicidal ratio of 5% or less (almost no effect)); d: effect on crop, Glycine max (Glycine max): 3 (Herbicidal ratio of 40% or more and less than 70%); e: effect on crop, Triticum aestivum (Triticum aestivum): 1 (Herbicidal ratio of 5% or more and less than 20%); f: effect on crop, Beta vulgaris ssp. vulgaris [3]: 3 (Herbicidal ratio of 40% or more and less than 70%); g: effect on crop, Brassica campestris L. (Brassica campestris L.): 0 (Herbicidal ratio of 5% or less (almost no effect))
C=CCn1nnnc1NC(=O)c1ccc(C(F)(F)F)n2c(C(C)C)nnc12 [2-091] | 4 (Herbicidal ratio of 70% or more and less than 90%) | 5 (Herbicidal ratio of 90% or more (almost completely withered)) | 3 (Herbicidal ratio of 40% or more and less than 70%) | 4 (Herbicidal ratio of 70% or more and less than 90%) | 5 (Herbicidal ratio of 90% or more (almost completely withered)) | 4 (Herbicidal ratio of 70% or more and less than 90%) | 5 (Herbicidal ratio of 90% or more (almost completely withered)) | 3 (Herbicidal ratio of 40% or more and less than 70%) | 4 (Herbicidal ratio of 70% or more and less than 90%) | 2 (Herbicidal ratio of 20% or more and less than 40%) | 5 (Herbicidal ratio of 90% or more (almost completely withered)) | 5 (Herbicidal ratio of 90% or more (almost completely withered)) | 3 (Herbicidal ratio of 40% or more and less than 70%) | 2 (Herbicidal ratio of 20% or more and less than 40%) | 3 (Herbicidal ratio of 40% or more and less than 70%) | 0 (Herbicidal ratio of 5% or less (almost no effect)) | 3 (Herbicidal ratio of 40% or more and less than 70%) | 5 (Herbicidal ratio of 90% or more (almost completely withered)) | 5 (Herbicidal ratio of 90% or more (almost completely withered)) | – | –
